Measured values reported in patent publication US20210260070A1, “LYSIN CF-301 RESENSITIZES METHICILLIN-RESISTANT STAPHYLOCOCCUS AUREUA (MRSA) TO PENICILLIN DERIVATIVES AND FIRST GENERATION CEPHALOSPORINS” (priority 2018, published 2021).

Tests used:
Format in all cases: cell-based, Staphylococcus aureus
[1] = test system: nine different MRSA strains; assay: Broth microdilution checkerboard assays, summary over the panel; conditions: each of the nine MRSA strains; breakpoint MIC ≤2 sensitive
Excerpt: (§1) In some embodiments, the present lysin polypeptides reduce the minimum inhibitory concentration (MIC) of an antibiotic. Any known method to assess MIC may be used. In some embodiments, a checkerboard assay is used to determine the effect of a lysin on antibiotic concentration. The checkerboard assay is based on a modification of the CLSI method for MIC determination by broth microdilution (See Clinical and Laboratory Standards Institute (CLSI), CLSI. 2015. Methods for Dilution Antimicrobial Susceptibility Tests for Bacteria That Grow Aerobically; Approved Standard-10th Edition. Clinical and Laboratory Standards Institute, Wayne, Pa., which is herein incorporated by reference in its entirety and Ceri et al. 1999. J. Clin. Microbiol. 37: 1771-1776, which is also herein incorporated by reference in its entirety).
(§2) Checkerboards are constructed by first preparing columns of e.g., a 96-well polypropylene microtiter plate, wherein each well has the same amount of antibiotic diluted 2-fold along the horizontal axis. […] The lysin and antibiotic dilutions are then combined, so that each column has a constant amount of antibiotic and doubling dilutions of lysin, while each row has a constant amount of lysin and doubling dilutions of antibiotic. Each well thus has a unique combination of lysin and antibiotic. Bacteria are added to the drug combinations at a given concentration. […] Summation fractional inhibitory concentrations (ΣFICs) are calculated for each drug and the minimum ΣFIC value (ΣFICmin) is used to determine the effect of the lysin/antibiotic combination.
A step-wise approach was used to evaluate PlySs2 as a resensitizing agent. First, broth microdilution checkerboard assays were used to determine fractional inhibitory concentration index (FICI) values for combinations of PlySs2 with three β-lactam antibiotics [oxacillin (OXA), nafcillin (NAF), and cefazoline (CFZ)] against nine different MRSA strains. […] Representative single agent MICs are also shown, determined for each agent alone (initial) and in combinations (final). […]

[2] = test system: MRSA strain JMI 1280; assay: Broth microdilution checkerboard assay; parameters: unit not given here; conditions: for MICinitial: each agent alone (initial); for MICfinal: * = Resensitization
Excerpt: as §1, §2
(§3) A step-wise approach was used to evaluate PlySs2 as a resensitizing agent. First, broth microdilution checkerboard assays were used to determine fractional inhibitory concentration index (FICI) values for combinations of PlySs2 with three β-lactam antibiotics [oxacillin (OXA), nafcillin (NAF), and cefazoline (CFZ)] against nine different MRSA strains. Data from the checkerboard assays were generated to determine the interaction and potency of PlySs2 with the β-lactam antibiotics in comparison to their individual activities. This comparison is represented as the FICI value, whereby values of ≤0.5 are consistent with synergy, values of >0.5-<1 are highly-additive, values of 1-≤2 are indifferent, and values >2 are antagonistic. Representative single agent MICs are also shown, determined for each agent alone (initial) and in combinations (final). Resensitization occurs in synergistic combinations in which the β-lactam antibiotic MIC values fall below established breakpoints, e.g. a MIC value of ≤2 for β-lactam-sensitive isolates, a MIC value of ≥4 for β-lactam-resistant isolates. See Clinical and Laboratory Standards Institute (CLSI), CLSI. 2019. M100 Performance Standards for Antimicrobial Susceptibility Testing; 29th Edition. Clinical and Laboratory Standards Institute, Wayne, Pa.

[3] = test system: MRSA strain MW2; assay: Broth microdilution checkerboard assay; parameters: unit not given here; conditions: for MICinitial: each agent alone (initial); for MICfinal: * = Resensitization
Excerpt: as §1, §2, §3

[4] = test system: MRSA strain ATCC 33591; assay: Broth microdilution checkerboard assay; parameters: unit not given here; conditions: for MICinitial: each agent alone (initial); for MICfinal: * = Resensitization
Excerpt: as §1, §2, §3

[5] = test system: MRSA strain JMI4789; assay: Broth microdilution checkerboard assay; parameters: unit not given here; conditions: for MICinitial: each agent alone (initial); for MICfinal: * = Resensitization
Excerpt: as §1, §2, §3

[6] = test system: MRSA strain CAIRD 426; assay: Broth microdilution checkerboard assay; parameters: unit not given here; conditions: for MICinitial: each agent alone (initial); for MICfinal: * = Resensitization
Excerpt: as §1, §2, §3

[7] = test system: MRSA strain JMI 227; assay: Broth microdilution checkerboard assay; parameters: unit not given here; conditions: for MICinitial: each agent alone (initial); for MICfinal: * = Resensitization
Excerpt: as §1, §2, §3

[8] = test system: MRSA strain HPV 107; assay: Broth microdilution checkerboard assay; parameters: unit not given here; conditions: for MICinitial: each agent alone (initial); for MICfinal: * = Resensitization
Excerpt: as §1, §2, §3

[9] = test system: MRSA strain NRS 11; assay: Broth microdilution checkerboard assay; parameters: unit not given here; conditions: for MICinitial: each agent alone (initial); for MICfinal: * = Resensitization
Excerpt: as §1, §2, §3

[10] = test system: MRSA strain ATCC 43300; assay: Broth microdilution checkerboard assay; parameters: unit not given here; conditions: for MICinitial: each agent alone (initial); for MICfinal: * = Resensitization
Excerpt: as §1, §2, §3

[11] = in combination PlySs2 + CFZ (final)
[12] = in combination PlySs2 + NAF (final)

MIC in synergistic combination with PlySs2 relative to breakpoint [1]	MICinitial [2]	MICinitial [3]	MICinitial [4]	MICinitial [5]	MICinitial [6]	MICinitial [7]	MICinitial [8]	MICinitial [9]	MICinitial [10]	Structure (SMILES)	also measured
below breakpoint values	32	4	128	4	8	2	16	256	16	Cc1nnc(SCC2=C(C(=O)O)N3C(=O)[C@@H](NC(=O)Cn4cnnn4)[C@H]3SC2)s1 [CFZ, cefazoline]	MICfinal [2, 11]: 0.5*; MICfinal [3, 11]: 1*; MICfinal [4, 11]: 0.5*; MICfinal [5, 11]: 1*; MICfinal [6, 11]: 0.5*; MICfinal [7, 11]: 0.5; MICfinal [8, 11]: 2*; MICfinal [9, 11]: 1*; MICfinal [10, 11]: 4
below breakpoint values	256	4	64	4	16	4	2	64	2	CCOc1ccc2ccccc2c1C(=O)N[C@@H]1C(=O)N2[C@@H]1SC(C)(C)[C@@H]2C(=O)O [NAF, nafcillin]	MICfinal [2, 12]: 2*; MICfinal [3, 12]: 0.031*; MICfinal [4, 12]: 2*; MICfinal [5, 12]: 0.5*; MICfinal [6, 12]: 1*; MICfinal [7, 12]: 0.5*; MICfinal [8, 12]: 0.25; MICfinal [9, 12]: 1*; MICfinal [10, 12]: 0.25
